Measurements from patent US7863255B2, “Methods of administering antitumor agent comprising deoxycytidine derivative” (Taiho Pharmaceutical Co., Ltd., priority 2008, dated 2011).

Key:
[1] = tested on: patients having a variety of solid cancers; experiment: Clinical Phase I equivalent test, continuous intravenous infusion for 336 hours once every three weeks; assay type: in vivo, human
Procedure: The frequency of adverse events and treatment effect were studied in a case where a course was repeatedly performed in which the antitumor agent was administered to cancer patients by continuous intravenous infusion in an amount of 2.0 to 4.0 mg/m^2 of CNDAC (free base) for a duration of 336 hours once every three weeks.
(§1) The present test was conducted on patients having a variety of solid cancers for which standard treatment was ineffective or no treatment was available (e.g., digestive system cancer, head and neck cancer, breast cancer, and the like). The test is equivalent to the Clinical Phase I Test, which primarily evaluates safety so as to determine a recommended dose (RD) that can be safely administered with no side effect concerns in the Clinical Phase II Test implemented per cancer type. Treatment effect on tumors was also evaluated in the test when possible. In the treatment effect test, the cytoreductive effect was determined based on comprehensive evaluation of target lesions (lesions having a size measurable at a slice width on CT and a larger size) and non-target lesions (all lesions not included in the target lesions), with reference to the RECIST evaluation method (Journal of the National Cancer Institute, 2000, Vol. 92, No. 3, 205-216). […] SD (stable disease) indicates a case where reduction of tumors was not enough to be determined as PR, but insufficient to be determined as PD; and the progression of tumors stopped and no exacerbation was observed.

[2] = tested on: patients having a variety of solid cancers; experiment: Clinical Phase I equivalent test, continuous intravenous infusion for 168 hours once every two weeks; assay type: in vivo, human
Procedure: as §1
The frequency of adverse events and treatment effect were studied in a case where a course was repeatedly performed in which the antitumor agent was administered by continuous intravenous infusion in an amount of 3.0 to 4.0 mg CNDAC (free base) per square meter of body surface area for a duration of 168 hours once every two weeks. Tested patients, evaluation methods, and evaluation standards are the same as those in the test in Example 1.

[3] = tested on: human lung cancer line LX-1; experiment: Antitumor effect, rapid vs continuous intravenous infusion in tumor-bearing rats; assay type: in vivo, rat; conditions: continuous infusion 4.5 mg/kg/day for two weeks compared with rapid intravenous infusion (800 mg/kg/day Days 1, 5, 8, 12 or 20 mg/kg/day Days 1-5 and 8-12)
Procedure: The antitumor effect was studied in rapid intravenous infusion and continuous intravenous infusion of CNDAC in tumor-bearing rat models. FIG. 1 indicates the study results of the antitumor effect in rapid intravenous infusion and continuous intravenous infusion of CNDAC administered to tumor-bearing rats having the human lung cancer line LX-1.
CNDAC (free base) was administered by rapid intravenous infusion (rapidly injected into a caudal vein using a syringe) in an amount of 800 mg/kg/day on Days 1, 5, 8, and 12, or 20 mg/kg/day on Days 1 to 5 and 8 to 12. Alternatively, CNDAC was administered by continuous intravenous infusion (continuously injected under the skin for 24 hours using a subcutaneous implantation constant-speed pump) in an amount of 4.5 mg/kg/day for two weeks. Relative tumor volume (a ratio of tumor volume on Day 1 of administration and that on Day 14 of administration) was obtained in a CNDAC administered group and a non-administered group (control group) of each administration method, and the obtained relative tumor volume was compared.

[4] = tested on: human breast cancer and colon cancer lines; experiment: Antitumor effect, rapid vs continuous intravenous infusion in tumor-bearing rat models, further lines; assay type: in vivo
[5] = tested on: human colon cancer line KM20C; experiment: Antitumor effect of continuous intravenous infusion of CNDAC and gemcitabine in tumor-bearing rats; assay type: in vivo, rat
Procedure: The antitumor effect was studied in a continuous intravenous infusion of CNDAC and gemcitabine administered to tumor-bearing rats having the human colon cancer line KM20C. FIG. 2 indicates the results.
CNDAC was administered by continuous intravenous infusion (continuously injected under the skin for 24 hours using a subcutaneous implantation constant-speed pump) in an amount of 36 mg/kg/day on Days 1 and 8, or 4.5 mg/kg/day on Days 1 to 14. Alternatively, gemcitabine was administered by rapid intravenous infusion in an amount of 300 mg/kg/day once a week for two weeks (Days 1 and 8), or by continuous intravenous infusion in an amount of 1.0 mg/kg/day for two weeks. Relative tumor volume was obtained and compared in a drug administered group and a non-administered group (control group) of each administration method.

[6] = tested on: human pancreatic cancer line PAN-4; experiment: Antitumor effect of continuous intravenous infusion in tumor-bearing rats; assay type: in vivo, rat; conditions: two-week continuous infusion 4.5 mg/kg/day Days 1 to 14 compared with 24-hour continuous infusion 36 mg/kg/day Day 1
Procedure: (§2) A relation between the antitumor effect and side effect (body weight suppression) was studied in a continuous intravenous infusion of CNDAC administered to tumor-bearing rats having the human pancreatic cancer line PAN-4. FIGS. 3 and 4 indicate the results.
(§3) CNDAC was administered by continuous intravenous infusion (continuously injected under the skin for 24 hours using a subcutaneous implantation constant-speed pump) in an amount of 36 mg/kg/day on Day 1, or 4.5 mg/kg/day on Days 1 to 14. Relative tumor volume was obtained and compared in a CNDAC administered group and a non-administered group (control group) of each administration method.

[7] = Side effect (body weight suppression) in tumor-bearing rats having PAN-4; assay type: in vivo, rat
Procedure: as §2, §3
Further, body weight reduction in the two-week continuous intravenous infusion group and 24-hour continuous intravenous infusion group was studied.

[8] = tested on: human-derived tumor lines; experiment: Antitumor tests using animal models, rapid intravenous infusion; assay type: in vivo; conditions: rapid intravenous infusion for 10 consecutive days, five times a week for two weeks, or once a week for two weeks; majority of lines; regrowth after completion
Description: However, the regrowth of tumors was observed after completion of the administration, and the cytoreductive effect was not necessarily shown. Further, increasing the dosage so as to increase the antitumor effect causes toxicity, including body weight suppression and leucopenia.

[9] = 3.0 mg/m^2, 336 hours once every three weeks
[10] = 4.0 mg/m^2, 168 hours once every two weeks

In the case of `N#C[C@H]1[C@H](O)[C@@H](CO)O[C@H]1n1ccc(N)nc1=O` [CNDAC, 4-amino-1-(2-cyano-2-deoxy-β-D-arabinofuranosyl)-2(1H)-pyrimidinone], the “adverse event requiring interruption of the administration” value ([1]; 2.0 mg/m^2, 336 hours once every three weeks) is reported as “no adverse event was seen that required interruption of the administration”, the “reduction (tumor) in one SD case” value ([1]; 2.0 mg/m^2, 336 hours once every three weeks, one case) is reported as “about 15%” and the “dose limiting toxicity (DLT)” value [1, 9] is reported as “not observed”. The “neutropenia of Grades 3 and 4” value [1, 9] was “found in the second case each of two courses”, the “efficacy (SD, stable disease), cases” value ([1]; 3.0 mg/m^2, 336 hours once every three weeks, RECIST) was “one out of the three cases” and the “platelet reduction of Grade 4” value ([1]; 4.0 mg/m^2, 336 hours once every three weeks) was “one out of the three cases”. The “febrile neutropenia of CTCAE Grade 3” value ([1]; 4.0 mg/m^2, 336 hours once every three weeks, three cases) was “all cases”, the “dose limiting toxicity (DLT) observed, cases” value ([1]; 4.0 mg/m^2, 336 hours once every three weeks, three out of three cases) was 100% and the “adverse event requiring interruption of the administration” value ([2]; 3.0 mg/m^2, 168 hours once every two weeks) was “no adverse event was seen that required interruption of the administration”. The “febrile neutropenia of CTCAE Grade 3” value [2, 10] was “one case”, the “neutropenia of Grade 4” value [2, 10] was “one case” and the “efficacy (SD, stable disease), cases” value ([2]; 4.0 mg/m^2, 168 hours once every two weeks, two out of the three cases) was 67%. For the same compound, the “dose limiting toxicity (DLT) observed, cases” value ([2]; 4.0 mg/m^2, 168 hours once every two weeks, two out of three evaluable cases) was 67%, the “antitumor effect (relative tumor volume)” value [3] was “high antitumor effect” and the “antitumor effect of continuous compared with rapid intravenous infusion” value [4] was “The effect was exhibited”. The “tumor volume after completion of administration” value ([5]; CNDAC continuous intravenous infusion (36 mg/kg/day Days 1 and 8 or 4.5 mg/kg/day Days 1 to 14)) was “significantly reduced even after the administration was completed”, the “antitumor effect (relative tumor volume)” value [6] was “significantly high antitumor effect” and the “body weight reduction at maximum” value ([7]; 24-hour continuous intravenous infusion group, 36 mg/kg/day on Day 1) was 20.4%. The “body weight reduction at maximum” value ([7]; two-week continuous intravenous infusion, 4.5 mg/kg/day on Days 1 to 14) was 4.6% and the “antitumor and antiproliferative effects” value [8] was “strong antitumor and antiproliferative effects”.
For `Nc1ccn([C@@H]2O[C@H](CO)[C@@H](O)C2(F)F)c(=O)n1` [gemcitabine, reference compound], the “tumor volume after completion of administration” value ([5]; gemcitabine continuous intravenous infusion 1.0 mg/kg/day for two weeks) was “not reduced after the administration was completed”.
